Series [1] is described as follows: Acute toxicity in BALB/c mouse xenografted with human HGC-27 cells assessed as increase in connective tissue proliferation of kidney at 40 mg/kg,ip administrated every other day for 17 days by hematoxylin and eosin staining method. In kind it is organism-based. Conditions: in vivo, 408 h, time 17 day. Background: A xenograft is tissue or cells of one species grown in another, often human tumour cells in immunodeficient mice.

The next series deals with A549. The experiment in a line: Antiproliferative activity against human A549 cells assessed as inhibition of cell growth incubated for 48 hrs by MTT assay. Conditions: A549, 48 h. In kind it is functional, cell-based. (In general: Tetrazolium assays rely on reduction of a dye to a coloured formazan, in cell work by metabolically active cells.)
Series [2] concerns HGC-27. Kind of series: Antitumor activity against human HGC-27 cells xenografted in BALB/c mouse assessed as tumor growth inhibition at 40 mg/kg,ip administrated every other day for 17 days relative to control. Conditions: HGC-27, 408 h, time 17 day, read-out: TGI. In kind it is functional.
For the next series, the system named is HepG2. Kind of series: Antiproliferative activity against human HepG2 cells assessed as inhibition of cell growth incubated for 48 hrs by MTT assay. The series is classed as functional, cell-based. Conditions: HepG2, 48 h.
For the next series, the system named is HeLa. The experiment in a line: Antiproliferative activity against human HeLa cells assessed as inhibition of cell growth incubated for 48 hrs by MTT assay. In kind it is functional, cell-based.
Series [3] is described as follows: Acute toxicity in BALB/c mouse xenografted with human HGC-27 cells assessed as increase in mucin secretion of lung at 40 mg/kg,ip administrated every other day for 17 days by hematoxylin and eosin staining method. The series is classed as organism-based. To be noted: in vivo, 408 h, time 17 day.
The subject of series [4] is HGC-27. Kind of series: Antiproliferative activity against human HGC-27 cells assessed as inhibition of cell growth incubated for 48 hrs by MTT assay. In kind it is functional, cell-based. To be noted: HGC-27, 48 h.
Series [5] is described as follows: Acute toxicity in BALB/c mouse xenografted with human HGC-27 cells assessed as venous congestion in spleen at 40 mg/kg,ip administrated every other day for 17 days by hematoxylin and eosin staining method. To be noted: in vivo, 408 h, time 17 day. The series is classed as organism-based.
A short description of series [6]: Acute toxicity in BALB/c mouse xenografted with human HGC-27 cells assessed as change in body weight at 40 mg/kg,ip administrated every other day for 17 days. To be noted: in vivo, 408 h, time 17 day. In kind it is organism-based.
In a further series the test system is L02. Kind of series: Antiproliferative activity against human L02 cells assessed as inhibition of cell growth incubated for 48 hrs by MTT assay. The series is classed as functional, cell-based. To be noted: L02, 48 h.
Series [7] deals with T1, DNA topoisomerase 1 (Homo sapiens) (UniProt P11387).
T1 sequence (whole entry): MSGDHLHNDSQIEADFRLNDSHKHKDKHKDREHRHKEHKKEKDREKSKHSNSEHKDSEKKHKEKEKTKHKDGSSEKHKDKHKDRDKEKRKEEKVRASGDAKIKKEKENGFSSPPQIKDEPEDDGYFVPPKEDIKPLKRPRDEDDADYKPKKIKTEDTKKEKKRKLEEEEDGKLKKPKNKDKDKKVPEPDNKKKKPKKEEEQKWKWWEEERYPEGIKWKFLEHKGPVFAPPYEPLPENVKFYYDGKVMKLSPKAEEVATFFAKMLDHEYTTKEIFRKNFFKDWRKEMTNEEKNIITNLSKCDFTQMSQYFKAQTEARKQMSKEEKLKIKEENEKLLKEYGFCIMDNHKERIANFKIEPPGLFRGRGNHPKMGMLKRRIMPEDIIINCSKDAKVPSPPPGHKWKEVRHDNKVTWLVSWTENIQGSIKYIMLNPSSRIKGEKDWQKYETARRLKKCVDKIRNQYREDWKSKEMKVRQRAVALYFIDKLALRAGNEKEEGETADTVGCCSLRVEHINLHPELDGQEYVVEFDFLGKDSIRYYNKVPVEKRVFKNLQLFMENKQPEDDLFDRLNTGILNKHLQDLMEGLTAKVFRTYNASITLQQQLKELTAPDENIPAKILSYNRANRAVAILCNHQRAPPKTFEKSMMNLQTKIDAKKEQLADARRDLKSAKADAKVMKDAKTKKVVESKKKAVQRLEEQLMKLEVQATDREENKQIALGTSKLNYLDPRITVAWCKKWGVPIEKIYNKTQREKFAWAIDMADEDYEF
The experiment in a line: Inhibition of human topoisomerase 1 assessed as relaxation of supercoiled pBR322 plasmid DNA at 100 uM incubated for 10 to 15 mins by EtBr staining based agarose gel electrophoresis method. Conditions: time 10-15 min.

Series [8] deals with Poly [ADP-ribose] polymerase 1 (Homo sapiens, UniProt P09874). The experiment in a line: Inhibition of PARP-1 (unknown origin) incubated for 70 mins by HT universal chemiluminescent assay.

Molecules are shown by their SMILES. Activity calls are given as the source filed them. The rule behind the calls is not given here. A value given as a limit tells only on which side of the number the result lay.

Poly [ADP-ribose] polymerase 1, sequence (P09874 whole entry): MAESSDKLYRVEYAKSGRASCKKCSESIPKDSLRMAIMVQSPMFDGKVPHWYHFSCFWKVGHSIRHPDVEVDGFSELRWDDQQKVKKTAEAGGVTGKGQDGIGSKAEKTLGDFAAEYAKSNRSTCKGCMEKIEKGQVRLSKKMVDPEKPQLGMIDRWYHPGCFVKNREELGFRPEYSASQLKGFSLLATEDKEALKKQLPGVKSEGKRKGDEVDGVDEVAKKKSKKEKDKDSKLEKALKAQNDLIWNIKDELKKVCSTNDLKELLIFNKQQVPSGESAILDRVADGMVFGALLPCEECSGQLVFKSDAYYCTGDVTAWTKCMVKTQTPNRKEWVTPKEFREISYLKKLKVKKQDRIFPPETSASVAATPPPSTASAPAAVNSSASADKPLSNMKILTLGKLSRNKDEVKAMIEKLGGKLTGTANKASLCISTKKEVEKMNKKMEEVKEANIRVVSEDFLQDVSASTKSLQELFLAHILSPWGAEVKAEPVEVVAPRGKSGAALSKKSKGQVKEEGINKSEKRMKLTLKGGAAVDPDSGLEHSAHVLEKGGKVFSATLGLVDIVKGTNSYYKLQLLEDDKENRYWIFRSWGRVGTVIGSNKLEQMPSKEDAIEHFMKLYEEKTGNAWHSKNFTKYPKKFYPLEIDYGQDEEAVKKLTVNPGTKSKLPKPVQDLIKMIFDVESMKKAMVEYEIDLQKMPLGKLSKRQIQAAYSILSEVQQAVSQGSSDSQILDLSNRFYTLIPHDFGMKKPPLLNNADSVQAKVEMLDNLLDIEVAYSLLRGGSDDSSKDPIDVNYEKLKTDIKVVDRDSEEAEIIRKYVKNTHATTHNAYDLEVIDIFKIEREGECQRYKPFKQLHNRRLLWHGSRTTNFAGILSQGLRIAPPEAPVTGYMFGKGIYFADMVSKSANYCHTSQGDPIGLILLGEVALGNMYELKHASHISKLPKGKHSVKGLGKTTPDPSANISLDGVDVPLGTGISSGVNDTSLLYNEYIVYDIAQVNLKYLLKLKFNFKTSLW

In the case of `CCc1c2c(nc3ccc(OC(=O)N4CCC(N5CCCCC5)CC4)cc13)-c1cc3c(c(=O)n1C2)COC(=O)[C@]3(O)CC` [IRINOTECAN], the Activity entry in series [1], in series [3], in series [5] and in [6] was “Toxic” each time. The IC50 (usually the point on the concentration scale where inhibition reaches its midpoint) in the series on A549 was 6.13 µM; in the series on HepG2, 10.8 µM; in the series on HeLa, 13.2 µM; in the series on HGC-27 [4], 7.01 µM. Besides, the inhibition in vivo at 40 mg/kg with HGC-27 [2] was 87%.
With `O=C(OCC1c2ccccc2-c2ccccc21)N1C[C@@H]2CCCN3CCC[C@@H]([C@H]23)[C@H]1CCCc1nc2cc(Cl)c(Cl)cc2[nH]1`, the half-inhibitory concentration (IC50) with L02 is over 64 µM; in the series with A549, 13.2 µM; with HepG2 it was 10.8 µM; in the series with HeLa, 8.46 µM; in the series on HGC-27 [4] (read-out: IC50), 9.78 µM; in series [8] it was 0.28 µM. In [7], the inhibition result is “Active”.
As for `O=C(CCC[C@@H]1[C@H]2CCCN3CCC[C@@H](CN1C(=O)OCC1c4ccccc4-c4ccccc41)[C@@H]23)Nc1nc2ccccc2[nH]1`, the IC50 with L02 is over 64 µM; with A549, 12.3 µM; in the series with HepG2, 6.45 µM; in the series with HeLa it was 16.1 µM; in the series with HGC-27 [4] (read-out: IC50), 7.38 µM; in series [8], 2.58 µM. Moreover, the inhibition result in series [7] is “Active”.
